Reference: PubChem BioAssay (NCI)
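96-well plates; 48 h exposure; 5 concentrations. Endpoints by linear interpolation between flanking doses. Not reached: highest tested concentration assigned. Abbreviation: GI50, concentration required for 50% inhibition of growth. At the TGI there is no net growth.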

What was measured:
Assay in all cases: NCI anticancer screen, dose series, 48 h
NCI/ADR-RES ovarian = system: NCI/ADR-RES ovarian
SK-MEL-5 melanoma = system: SK-MEL-5 melanoma
SW-620 colon = system: SW-620 colon
HOP-62 NSCLC = system: HOP-62 NSCLC
UACC-62 melanoma = system: UACC-62 melanoma
HCC-2998 colon = system: HCC-2998 colon
T-47D breast = system: T-47D breast
A549 NSCLC = system: A549 NSCLC
OVCAR-8 ovarian = system: OVCAR-8 ovarian
EKVX NSCLC = system: EKVX NSCLC
MALME-3M melanoma = system: MALME-3M melanoma
OVCAR-4 ovarian = system: OVCAR-4 ovarian
SK-OV-3 ovarian = system: SK-OV-3 ovarian
M14 melanoma = system: M14 melanoma
MDA-MB-435 = system: MDA-MB-435
HCT-116 colon = system: HCT-116 colon
HS 578T breast = system: HS 578T breast
KM12 colon = system: KM12 colon
NCI-H522 lung = system: NCI-H522 lung
DU-145 prostate = system: DU-145 prostate
HT29 colon = system: HT29 colon
NCI-H23 lung = system: NCI-H23 lung
SNB-19 CNS = system: SNB-19 CNS
HL-60(TB) leukemia = system: HL-60(TB) leukemia
OVCAR-5 ovarian = system: OVCAR-5 ovarian
K-562 leukemia = system: K-562 leukemia
UO-31 renal = system: UO-31 renal
ACHN renal = system: ACHN renal
TK-10 renal = system: TK-10 renal
PC-3 prostate = system: PC-3 prostate
SN12C renal = system: SN12C renal
A498 renal = system: A498 renal
NCI-H226 lung = system: NCI-H226 lung
SR leukemia = system: SR leukemia
SF-268 CNS = system: SF-268 CNS
LOX IMVI melanoma = system: LOX IMVI melanoma
SF-295 CNS = system: SF-295 CNS
SNB-75 CNS = system: SNB-75 CNS
SK-MEL-2 melanoma = system: SK-MEL-2 melanoma
MDA-MB-231 breast = system: MDA-MB-231 breast
COLO 205 colon = system: COLO 205 colon
MOLT-4 leukemia = system: MOLT-4 leukemia
CCRF-CEM leukemia = system: CCRF-CEM leukemia
SK-MEL-28 melanoma = system: SK-MEL-28 melanoma
IGROV1 ovarian = system: IGROV1 ovarian
SF-539 CNS = system: SF-539 CNS
U251 CNS = system: U251 CNS
UACC-257 melanoma = system: UACC-257 melanoma
HCT-15 colon = system: HCT-15 colon
786-0 renal = system: 786-0 renal
RXF 393 renal = system: RXF 393 renal
MCF7 breast = system: MCF7 breast
CAKI-1 renal = system: CAKI-1 renal
NCI-H460 lung = system: NCI-H460 lung
OVCAR-3 ovarian = system: OVCAR-3 ovarian
HOP-92 NSCLC = system: HOP-92 NSCLC
RPMI-8226 leukemia = system: RPMI-8226 leukemia

`CC[C@@H](C)/C=C(C)/C=C/C(=O)c1c(O)c(-c2ccc(OC(=O)[C@@]34CC[C@@](C)(C(=O)O3)C4(C)C)cc2)cn(O)c1=O` was tested, and the GI50 (NCI/ADR-RES ovarian) was 1.46 µM, the TGI (NCI/ADR-RES ovarian) was 10 µM and the GI50 (SK-MEL-5 melanoma) was 1.4 µM. It also gave a TGI (SK-MEL-5 melanoma) of 4.63 µM, a GI50 (SW-620 colon) of 2.43 µM and a TGI (SW-620 colon) of over 50 µM. For the same compound, the GI50 (HOP-62 NSCLC) was 2.05 µM, the TGI (HOP-62 NSCLC) was over 50 µM and the GI50 (UACC-62 melanoma) was 1.16 µM. It also gave a TGI (UACC-62 melanoma) of 2.7 µM, a GI50 (HCC-2998 colon) of 3.65 µM and a TGI (HCC-2998 colon) of over 50 µM. It also gave a GI50 (T-47D breast) of 1.94 µM, a TGI (T-47D breast) of over 50 µM and a GI50 (A549 NSCLC) of 4.27 µM. For the same compound, the TGI (A549 NSCLC) was over 50 µM, the GI50 (OVCAR-8 ovarian) was 1.76 µM and the TGI (OVCAR-8 ovarian) was over 50 µM. It also gave a GI50 (EKVX NSCLC) of 2.81 µM, a TGI (EKVX NSCLC) of over 50 µM and a GI50 (MALME-3M melanoma) of 1.5 µM. The TGI (MALME-3M melanoma) was over 50 µM, the GI50 (OVCAR-4 ovarian) was 1.23 µM and the TGI (OVCAR-4 ovarian) was over 50 µM. It also gave a GI50 (SK-OV-3 ovarian) of 7.48 µM, a TGI (SK-OV-3 ovarian) of over 50 µM and a GI50 (M14 melanoma) of 1.06 µM. The TGI (M14 melanoma) was 2.49 µM, the GI50 (MDA-MB-435) was 2.46 µM and the TGI (MDA-MB-435) was over 50 µM. It also gave a GI50 (HCT-116 colon) of 1.47 µM, a TGI (HCT-116 colon) of over 50 µM and a GI50 (HS 578T breast) of 3.33 µM. For the same compound, the TGI (HS 578T breast) was over 50 µM, the GI50 (KM12 colon) was 3.85 µM and the TGI (KM12 colon) was over 50 µM. For the same compound, the GI50 (NCI-H522 lung) was 1.73 µM, the TGI (NCI-H522 lung) was over 50 µM and the GI50 (DU-145 prostate) was 0.839 µM. It also gave a TGI (DU-145 prostate) of over 50 µM, a GI50 (HT29 colon) of 21.2 µM and a TGI (HT29 colon) of over 50 µM. For the same compound, the GI50 (NCI-H23 lung) was 2.41 µM, the TGI (NCI-H23 lung) was over 50 µM and the GI50 (SNB-19 CNS) was 2.66 µM. The TGI (SNB-19 CNS) was over 50 µM, the GI50 (HL-60(TB) leukemia) was 0.841 µM and the TGI (HL-60(TB) leukemia) was 2.4 µM. For the same compound, the GI50 (OVCAR-5 ovarian) was 2.79 µM, the TGI (OVCAR-5 ovarian) was over 50 µM and the GI50 (K-562 leukemia) was 1.57 µM. The TGI (K-562 leukemia) was over 50 µM, the GI50 (UO-31 renal) was 1.32 µM and the TGI (UO-31 renal) was 7.89 µM. For the same compound, the GI50 (ACHN renal) was 1.32 µM, the TGI (ACHN renal) was 11.6 µM and the GI50 (TK-10 renal) was 1.99 µM. For the same compound, the TGI (TK-10 renal) was over 50 µM, the GI50 (PC-3 prostate) was 20.4 µM and the TGI (PC-3 prostate) was over 50 µM. For the same compound, the GI50 (SN12C renal) was 2.47 µM, the TGI (SN12C renal) was over 50 µM and the GI50 (A498 renal) was 5.6 µM. For the same compound, the TGI (A498 renal) was over 50 µM, the GI50 (NCI-H226 lung) was 1.39 µM and the TGI (NCI-H226 lung) was over 50 µM. For the same compound, the GI50 (SR leukemia) was 1.32 µM, the TGI (SR leukemia) was 7.4 µM and the GI50 (SF-268 CNS) was 0.888 µM. It also gave a TGI (SF-268 CNS) of 6.6 µM, a GI50 (LOX IMVI melanoma) of 0.961 µM and a TGI (LOX IMVI melanoma) of over 50 µM. For the same compound, the GI50 (SF-295 CNS) was 1.99 µM, the TGI (SF-295 CNS) was 26.9 µM and the GI50 (SNB-75 CNS) was 4.34 µM. For the same compound, the TGI (SNB-75 CNS) was over 50 µM, the GI50 (SK-MEL-2 melanoma) was 15.6 µM and the TGI (SK-MEL-2 melanoma) was over 50 µM. It also gave a GI50 (MDA-MB-231 breast) of 1.83 µM, a TGI (MDA-MB-231 breast) of over 50 µM and a GI50 (COLO 205 colon) of 15.2 µM. The TGI (COLO 205 colon) was over 50 µM, the GI50 (MOLT-4 leukemia) was 1.04 µM and the TGI (MOLT-4 leukemia) was over 50 µM. The GI50 (CCRF-CEM leukemia) was 1.12 µM, the TGI (CCRF-CEM leukemia) was over 50 µM and the GI50 (SK-MEL-28 melanoma) was 2.51 µM. It also gave a TGI (SK-MEL-28 melanoma) of over 50 µM, a GI50 (IGROV1 ovarian) of 1.72 µM and a TGI (IGROV1 ovarian) of 41.4 µM. It also gave a GI50 (SF-539 CNS) of 1.3 µM, a TGI (SF-539 CNS) of 6.1 µM and a GI50 (U251 CNS) of 1.64 µM. For the same compound, the TGI (U251 CNS) was over 50 µM, the GI50 (UACC-257 melanoma) was 1.8 µM and the TGI (UACC-257 melanoma) was 36 µM. The GI50 (HCT-15 colon) was 1.17 µM, the TGI (HCT-15 colon) was over 50 µM and the GI50 (786-0 renal) was 1.55 µM. For the same compound, the TGI (786-0 renal) was 4.98 µM, the GI50 (RXF 393 renal) was 1.81 µM and the TGI (RXF 393 renal) was over 50 µM. For the same compound, the GI50 (MCF7 breast) was 1.82 µM, the TGI (MCF7 breast) was over 50 µM and the GI50 (CAKI-1 renal) was 1.6 µM. It also gave a TGI (CAKI-1 renal) of 11.9 µM, a GI50 (NCI-H460 lung) of 1.28 µM and a TGI (NCI-H460 lung) of 7.56 µM. It also gave a GI50 (OVCAR-3 ovarian) of 1.04 µM, a TGI (OVCAR-3 ovarian) of over 50 µM and a GI50 (HOP-92 NSCLC) of 2.84 µM. It also gave a TGI (HOP-92 NSCLC) of over 50 µM, a GI50 (RPMI-8226 leukemia) of 2.49 µM and a TGI (RPMI-8226 leukemia) of over 50 µM.
With `Cc1cc(CCC(=O)NCCNc2c3ccccc3nc3ccccc23)cc(C)c1O[Si](C)(C)C(C)(C)C` the TGI (NCI/ADR-RES ovarian) was 4.44 µM, the TGI (UACC-62 melanoma) was 27.6 µM and the TGI (A549 NSCLC) was 1.99 µM. It also gave a TGI (OVCAR-4 ovarian) of 2.67 µM, a TGI (SK-OV-3 ovarian) of 3.01 µM and a TGI (MDA-MB-435) of 1.04 µM. It also gave a TGI (DU-145 prostate) of 2.63 µM, a TGI (HT29 colon) of 1.71 µM and a TGI (HL-60(TB) leukemia) of 3.16 µM. For the same compound, the TGI (K-562 leukemia) was 0.826 µM, the TGI (ACHN renal) was 3.05 µM and the TGI (SN12C renal) was 28.8 µM. The TGI (A498 renal) was 2.02 µM, the TGI (NCI-H226 lung) was 33.4 µM and the TGI (LOX IMVI melanoma) was 0.29 µM. For the same compound, the TGI (SF-295 CNS) was 2.27 µM, the TGI (MDA-MB-231 breast) was 25.8 µM and the TGI (COLO 205 colon) was 2.23 µM. The TGI (SK-MEL-28 melanoma) was 3.37 µM, the TGI (SF-539 CNS) was 0.377 µM and the TGI (UACC-257 melanoma) was 3.51 µM. It also gave a TGI (OVCAR-3 ovarian) of 3.57 µM.
With `CCn1cc(CNc2ccc(C(=O)Nc3cc4cc(OC)c(OC)cc4c(C)n3)cc2)c(C)n1` the GI50 (HOP-62 NSCLC) was 2.71 µM, the TGI (HOP-62 NSCLC) was 7.18 µM and the GI50 (OVCAR-4 ovarian) was 3.07 µM. It also gave a TGI (OVCAR-4 ovarian) of over 100 µM, a GI50 (HS 578T breast) of 5.32 µM and a TGI (HS 578T breast) of over 100 µM. It also gave a GI50 (OVCAR-5 ovarian) of over 100 µM, a TGI (OVCAR-5 ovarian) of over 100 µM and a GI50 (A498 renal) of 4.29 µM. For the same compound, the TGI (A498 renal) was over 100 µM, the GI50 (SR leukemia) was 2.71 µM and the TGI (SR leukemia) was over 100 µM. For the same compound, the GI50 (SF-268 CNS) was 33.6 µM, the TGI (SF-268 CNS) was over 100 µM and the GI50 (SNB-75 CNS) was 4.72 µM. The TGI (SNB-75 CNS) was over 100 µM, the GI50 (MDA-MB-231 breast) was over 100 µM and the TGI (MDA-MB-231 breast) was over 100 µM. It also gave a GI50 (IGROV1 ovarian) of over 100 µM, a TGI (IGROV1 ovarian) of over 100 µM and a GI50 (U251 CNS) of 3.64 µM. It also gave a TGI (U251 CNS) of over 100 µM, a GI50 (786-0 renal) of 28.6 µM and a TGI (786-0 renal) of over 100 µM. For the same compound, the GI50 (RXF 393 renal) was over 100 µM and the TGI (RXF 393 renal) was over 100 µM.
